# Assay results taken from patent publication US8450357B2, “Compositions comprising an aryl pyrazole and/or a formamidine, methods and uses thereof” (Merial Limited, priority 2008, dated 2013).
# Experiments:
# [1] = test system: fleas (Ctenocephalides felis); assay: Study A: flea efficacy of Compound 1 spot-on formulations in dogs; type: in vivo
# Method: An initial clinical study was conducted to test the efficacy of Compound 1 (3-cyano-1-(2-chloro-6-fluoro-4-trifluoromethylphenyl)-4-dichlorofluoromethylsulfinyl-5-methyl-1H-pyrazole) against ticks and fleas in various test formulations. Five test groups and an untreated control were evaluated. Each test group included six dogs. Compound was dissolved in a solvent or a combination of two or more solvents at 10% w/w. Test articles were formulated as topical spot-on solutions containing compound 1, 10% w/v in a solvent or a combination of solvents as described above. Dogs were infested with approximately 50 ticks (Rhipicephalus sanguineus) on days −1, 7, 14, 21, 28, 35 and 42. Dogs were also infested with approximately 100 fleas (Ctenocephalides felis) on days −1, 8, 15, 22, 29, 36, and 43. Treatment was applied by parting the hair and applying the formulation directly onto the skin on one spot at the midline of the neck, between the base of the skull and the shoulder blades. The dose rate of each of the topical solutions was 0.1 ml/kg (10 mg/kg) body weight. The efficacy of compound 1 in various formulations is shown Table 2 below.
# [2] = test system: ticks (Rhipicephalus sanguineus); assay: Study B: tick efficacy of Compound 1 spot-on formulations in dogs; type: in vivo
# Description: A separate clinical efficacy study in dogs was designed with an untreated control group and 5 test groups treated with compound 1. Each group had six dogs. Test articles were formulated as topical spot-on solutions containing compound 1, 10-20% w/v in a solvent or a combination of solvents as described above. Dogs were infested with approximately 50 ticks (Rhipicephalus sanguineus) on days −1, 7, 14, 21, 28, 35 and 42. Dogs were also infested with approximately 100 fleas (Ctenocephalides felis) on days −1, 8, 15, 22, 29, 36, and 43. Treatment was applied by parting the hair and applying the formulation directly onto the skin on one spot at the midline of the neck, between the base of the skull and the shoulder blades. […] […] It should be noted that Study A and Study B were conducted at different times and locations, and the results of each clinical study may differ from the other based on various environmental factors. Thus, the results of one clinical study should not be compared with those of another due to these factors.
# [3] = Stability of formulations comprising Compound 1, accelerated @ 50° C., HPLC; type: physicochemical; details: solvents or combinations of solvents in Table 1
# Method: Compound 1 (3-cyano-1-(2-chloro-6-fluoro-4-trifluoromethylphenyl)-4-dichlorofluoromethylsulfinyl-5-methyl-1H-pyrazole) was dissolved in a solvent or a combination of two or more solvents at 10% w/w. The formulations thus prepared were analyzed, using HPLC, for the content of compound 1 as the initial timepoint reading. Then all formulations were placed at 50° C., and the content of compound 1 in each of them was analyzed at the timepoints of two, four, six and, in some cases, 10 weeks. […] Thus formulations of Compound 1 in the solvents/carriers identified below are shown to be sufficiently stable.
smiles,measurement,setting,value
"Cc1c([S+]([O-])C(F)(Cl)Cl)c(C#N)nn1-c1c(F)cc(C(F)(F)F)cc1Cl (stereo not drawn) [Compound 1, 3-cyano-1-(2-chloro-6-fluoro-4-trifluoromethylphenyl)-4-dichlorofluoromethylsulfinyl-5-methyl-1H-pyrazole]",% Efficacy against fleas,"[1]; Day 2, Trt. Group 2: 10 mg/kg in Butyl acetate/octyl acetate",99.6%
same,% Efficacy against fleas,"[1]; Day 2, Trt. Group 3: 10 mg/kg in Diethylene glycol monoethyl ether (transcutol)/N-methyl-2-pyrrolidone",96.0%
same,% Efficacy against fleas,"[1]; Day 2, Trt. Group 4: 10 mg/kg in Dipropylene glycol monomethyl ether/butyl acetate",100%
same,% Efficacy against fleas,"[1]; Day 2, Trt. Group 5: 10 mg/kg in Diisopropyl adipate",100%
same,% Efficacy against fleas,"[1]; Day 2, Trt. Group 6: 10 mg/kg in Triacetin",98.0%
same,% Efficacy against fleas,"[1]; Day 9, Trt. Group 2: 10 mg/kg in Butyl acetate/octyl acetate",100%
same,% Efficacy against fleas,"[1]; Day 9, Trt. Group 3: 10 mg/kg in Diethylene glycol monoethyl ether (transcutol)/N-methyl-2-pyrrolidone",100%
same,% Efficacy against fleas,"[1]; Day 9, Trt. Group 4: 10 mg/kg in Dipropylene glycol monomethyl ether/butyl acetate",100%
same,% Efficacy against fleas,"[1]; Day 9, Trt. Group 5: 10 mg/kg in Diisopropyl adipate",100%
same,% Efficacy against fleas,"[1]; Day 9, Trt. Group 6: 10 mg/kg in Triacetin",100%
same,% Efficacy against fleas,"[1]; Day 16, Trt. Group 2: 10 mg/kg in Butyl acetate/octyl acetate",100%
same,% Efficacy against fleas,"[1]; Day 16, Trt. Group 3: 10 mg/kg in Diethylene glycol monoethyl ether (transcutol)/N-methyl-2-pyrrolidone",99.8%
same,% Efficacy against fleas,"[1]; Day 16, Trt. Group 4: 10 mg/kg in Dipropylene glycol monomethyl ether/butyl acetate",100%
same,% Efficacy against fleas,"[1]; Day 16, Trt. Group 5: 10 mg/kg in Diisopropyl adipate",100%
same,% Efficacy against fleas,"[1]; Day 16, Trt. Group 6: 10 mg/kg in Triacetin",100%
same,% Efficacy against fleas,"[1]; Day 23, Trt. Group 2: 10 mg/kg in Butyl acetate/octyl acetate",99.4%
same,% Efficacy against fleas,"[1]; Day 23, Trt. Group 3: 10 mg/kg in Diethylene glycol monoethyl ether (transcutol)/N-methyl-2-pyrrolidone",98.8%
same,% Efficacy against fleas,"[1]; Day 23, Trt. Group 4: 10 mg/kg in Dipropylene glycol monomethyl ether/butyl acetate",99.5%
same,% Efficacy against fleas,"[1]; Day 23, Trt. Group 5: 10 mg/kg in Diisopropyl adipate",100%
same,% Efficacy against fleas,"[1]; Day 23, Trt. Group 6: 10 mg/kg in Triacetin",100%
same,% Efficacy against fleas,"[1]; Day 30, Trt. Group 2: 10 mg/kg in Butyl acetate/octyl acetate",94.5%
same,% Efficacy against fleas,"[1]; Day 30, Trt. Group 3: 10 mg/kg in Diethylene glycol monoethyl ether (transcutol)/N-methyl-2-pyrrolidone",91.4%
same,% Efficacy against fleas,"[1]; Day 30, Trt. Group 4: 10 mg/kg in Dipropylene glycol monomethyl ether/butyl acetate",83.2%
same,% Efficacy against fleas,"[1]; Day 30, Trt. Group 5: 10 mg/kg in Diisopropyl adipate",92.9%
same,% Efficacy against fleas,"[1]; Day 30, Trt. Group 6: 10 mg/kg in Triacetin",99.7%
same,% Efficacy against fleas,"[1]; Day 37, Trt. Group 2: 10 mg/kg in Butyl acetate/octyl acetate",80.4%
same,% Efficacy against fleas,"[1]; Day 37, Trt. Group 3: 10 mg/kg in Diethylene glycol monoethyl ether (transcutol)/N-methyl-2-pyrrolidone",85.3%
same,% Efficacy against fleas,"[1]; Day 37, Trt. Group 4: 10 mg/kg in Dipropylene glycol monomethyl ether/butyl acetate",76.5%
same,% Efficacy against fleas,"[1]; Day 37, Trt. Group 5: 10 mg/kg in Diisopropyl adipate",69.1%
same,% Efficacy against fleas,"[1]; Day 37, Trt. Group 6: 10 mg/kg in Triacetin",98.9%
same,% Efficacy against fleas,"[1]; Day 44, Trt. Group 2: 10 mg/kg in Butyl acetate/octyl acetate",46.9%
same,% Efficacy against fleas,"[1]; Day 44, Trt. Group 3: 10 mg/kg in Diethylene glycol monoethyl ether (transcutol)/N-methyl-2-pyrrolidone",38.9%
same,% Efficacy against fleas,"[1]; Day 44, Trt. Group 4: 10 mg/kg in Dipropylene glycol monomethyl ether/butyl acetate",31.1%
same,% Efficacy against fleas,"[1]; Day 44, Trt. Group 5: 10 mg/kg in Diisopropyl adipate",40.3%
same,% Efficacy against fleas,"[1]; Day 44, Trt. Group 6: 10 mg/kg in Triacetin",93.0%
same,% Efficacy against ticks,"[2]; Day 1, Trt. Group 2: 0.1 ml/kg (10 mg/kg) in Triacetin",94.8%
same,% Efficacy against ticks,"[2]; Day 1, Trt. Group 3: 0.2 ml/kg (20 mg/kg) in Triacetin",93.9%
same,% Efficacy against ticks,"[2]; Day 1, Trt. Group 4: 10 mg/kg in Diisopropyl adipate",95.6%
same,% Efficacy against ticks,"[2]; Day 1, Trt. Group 5: 10 mg/kg in Diethylene glycol monoethyl ether (transcutol)",87.4%
same,% Efficacy against ticks,"[2]; Day 1, Trt. Group 6: 10 mg/kg in Triacetin/diisopropyl adipate",94.8%
same,% Efficacy against ticks,"[2]; Day 2, Trt. Group 2: 0.1 ml/kg (10 mg/kg) in Triacetin",99.6%
same,% Efficacy against ticks,"[2]; Day 2, Trt. Group 3: 0.2 ml/kg (20 mg/kg) in Triacetin",98.9%
same,% Efficacy against ticks,"[2]; Day 2, Trt. Group 4: 10 mg/kg in Diisopropyl adipate",98.9%
same,% Efficacy against ticks,"[2]; Day 2, Trt. Group 5: 10 mg/kg in Diethylene glycol monoethyl ether (transcutol)",98.5%
same,% Efficacy against ticks,"[2]; Day 2, Trt. Group 6: 10 mg/kg in Triacetin/diisopropyl adipate",99.6%
same,% Efficacy against ticks,"[2]; Day 9, Trt. Group 2: 0.1 ml/kg (10 mg/kg) in Triacetin",100%
same,% Efficacy against ticks,"[2]; Day 9, Trt. Group 3: 0.2 ml/kg (20 mg/kg) in Triacetin",100%
same,% Efficacy against ticks,"[2]; Day 9, Trt. Group 4: 10 mg/kg in Diisopropyl adipate",100%
same,% Efficacy against ticks,"[2]; Day 9, Trt. Group 5: 10 mg/kg in Diethylene glycol monoethyl ether (transcutol)",100%
same,% Efficacy against ticks,"[2]; Day 9, Trt. Group 6: 10 mg/kg in Triacetin/diisopropyl adipate",100%
same,% Efficacy against ticks,"[2]; Day 16, Trt. Group 2: 0.1 ml/kg (10 mg/kg) in Triacetin",100%
same,% Efficacy against ticks,"[2]; Day 16, Trt. Group 3: 0.2 ml/kg (20 mg/kg) in Triacetin",100%
same,% Efficacy against ticks,"[2]; Day 16, Trt. Group 4: 10 mg/kg in Diisopropyl adipate",100%
same,% Efficacy against ticks,"[2]; Day 16, Trt. Group 5: 10 mg/kg in Diethylene glycol monoethyl ether (transcutol)",100%
same,% Efficacy against ticks,"[2]; Day 16, Trt. Group 6: 10 mg/kg in Triacetin/diisopropyl adipate",100%
same,% Efficacy against ticks,"[2]; Day 23, Trt. Group 2: 0.1 ml/kg (10 mg/kg) in Triacetin",100%
same,% Efficacy against ticks,"[2]; Day 23, Trt. Group 3: 0.2 ml/kg (20 mg/kg) in Triacetin",100%
same,% Efficacy against ticks,"[2]; Day 23, Trt. Group 4: 10 mg/kg in Diisopropyl adipate",99.1%
same,% Efficacy against ticks,"[2]; Day 23, Trt. Group 5: 10 mg/kg in Diethylene glycol monoethyl ether (transcutol)",100%
same,% Efficacy against ticks,"[2]; Day 23, Trt. Group 6: 10 mg/kg in Triacetin/diisopropyl adipate",100%
same,% Efficacy against ticks,"[2]; Day 30, Trt. Group 2: 0.1 ml/kg (10 mg/kg) in Triacetin",98.8%
same,% Efficacy against ticks,"[2]; Day 30, Trt. Group 3: 0.2 ml/kg (20 mg/kg) in Triacetin",100%
same,% Efficacy against ticks,"[2]; Day 30, Trt. Group 4: 10 mg/kg in Diisopropyl adipate",99.1%
same,% Efficacy against ticks,"[2]; Day 30, Trt. Group 5: 10 mg/kg in Diethylene glycol monoethyl ether (transcutol)",98.8%
same,% Efficacy against ticks,"[2]; Day 30, Trt. Group 6: 10 mg/kg in Triacetin/diisopropyl adipate",98.8%
same,% Efficacy against ticks,"[2]; Day 44, Trt. Group 2: 0.1 ml/kg (10 mg/kg) in Triacetin",94.5%
same,% Efficacy against ticks,"[2]; Day 44, Trt. Group 3: 0.2 ml/kg (20 mg/kg) in Triacetin",99.4%
same,% Efficacy against ticks,"[2]; Day 44, Trt. Group 4: 10 mg/kg in Diisopropyl adipate",93.4%
same,% Efficacy against ticks,"[2]; Day 44, Trt. Group 5: 10 mg/kg in Diethylene glycol monoethyl ether (transcutol)",98.5%
same,% Efficacy against ticks,"[2]; Day 44, Trt. Group 6: 10 mg/kg in Triacetin/diisopropyl adipate",96.6%
same,% Efficacy against ticks,"[2]; Day 51, Trt. Group 2: 0.1 ml/kg (10 mg/kg) in Triacetin",90.8%
same,% Efficacy against ticks,"[2]; Day 51, Trt. Group 3: 0.2 ml/kg (20 mg/kg) in Triacetin",99.3%
same,% Efficacy against ticks,"[2]; Day 51, Trt. Group 4: 10 mg/kg in Diisopropyl adipate",87.9%
same,% Efficacy against ticks,"[2]; Day 51, Trt. Group 5: 10 mg/kg in Diethylene glycol monoethyl ether (transcutol)",98.9%
same,% Efficacy against ticks,"[2]; Day 51, Trt. Group 6: 10 mg/kg in Triacetin/diisopropyl adipate",91.6%
same,% Efficacy against ticks,"[2]; Day 58, Trt. Group 2: 0.1 ml/kg (10 mg/kg) in Triacetin",74.6%
same,% Efficacy against ticks,"[2]; Day 58, Trt. Group 3: 0.2 ml/kg (20 mg/kg) in Triacetin",97.6%
same,% Efficacy against ticks,"[2]; Day 58, Trt. Group 4: 10 mg/kg in Diisopropyl adipate",89.5%
same,% Efficacy against ticks,"[2]; Day 58, Trt. Group 5: 10 mg/kg in Diethylene glycol monoethyl ether (transcutol)",94.1%
same,% Efficacy against ticks,"[2]; Day 58, Trt. Group 6: 10 mg/kg in Triacetin/diisopropyl adipate",88.1%
same,stability of Compound 1,[3],good stability
